Laboratory results: patent US12378518B2, “Differentiation induction from human pluripotent stem cells into hypothalamic neurons” (National University Corporation Nagoya University, priority 2016, dated 2025)
Entries after “also recorded” stand apart in the source; their conditions may differ. Ends that are not written are not given here.

Assays:
Format in all cases: cell-based
[1] = system: human ES cells (KhES-1); assay: Differentiation induction of human ES cells by SFEBq method, analysed by fluorescent antibody method; conditions: Day 30 of culture
Description: Next, it was examined whether the method can be applied also to human ES cells. Human ES cells (KhES-1) were subjected to maintenance culture by a conventional method on MEF and then used. To monitor differentiation induction into a hypothalamic tissue, KhES-1 wherein a Venus cDNA has been knocked-in into the gene of Rx which is a hypothalamic nerve marker was used. To differentiate human ES cells by Serum-Free Embryonic Body quick method (SFEBq method), human ES cells were dispersed to single cells using an enzyme by the method of Nakano et al. (Cell Stem Cell. 2012 Jun. 14; 10 (6): 771-85), and reaggregated using a low cell adhesive V-bottom 96-well plate (Sumitomo Bakelite Co., Ltd.). Ten thousand (10,000) cells were seeded per well and cultured in a gfCDM differentiation medium at 37° C. under 5% CO2. With the day of seeding defined as Day 0 of differentiation culture, 20 μM Y-27632 (ROCK inhibitor: cell death suppressor at the time of dispersion: Watanabe et al. (Nat Biotechnol. 2007 June; 25 (6): 681-6. Epub 2007 May 27.)) was added from Day 0 to Day 3, and, on and after Day 3 of culture, a half of the medium was exchanged with a differentiation medium free from Y-27632 at a frequency of once every 3 days. Based on the thought that no aggregate was formed due to nutritional deficiency, a small amount of a serum alternative KSR was added to the gfCDM to verify the effect. Specifically, the SFEBq method was performed by mixing 2%, 5%, 10%, and 20% KSR in the gfCDM medium. On and after Day 18, the oxygen partial pressure during culture was set to 40%. The differentiation of the tissue was analyzed by a fluorescent antibody method. Based on the thought that the positional shift to the telencephalon was caused by various growth factors included in KSR, the addition of a bone morphogenetic protein signal transduction pathway activating substance was decided. Specifically, differentiation induction was attempted under the following conditions. […]

[2] = system: AVP neurons induced from human ES cells (KhES-1); assay: KCl stimulation test of induced AVP neurons (AVP hormone by RIA method); conditions: isotonic solution containing 0.1% potassium chloride for 30 minutes; cells on Day 180 of culture
Description: As a result of continuing suspension culture under the dorsal hypothalamus induction conditions, the expression of Otp and Brn2 (generally, Otp and Brn2 positive hypothalamus is thought to be in the precursor state of AVP neurons) was confirmed on Day 60 of culture (FIG. 6), and a small number of AVP-positive cells were observed on Day 103 of culture (FIG. 7). In order to improve the induction efficiency, the incorporation of dissociation culture, which is considered to be advantageous in neurogenesis, was decided. Specifically, differentiation induction was attempted under the following conditions. Cell aggregates were dispersed, and cells were seeded at 2×10^4 to 40×10^4 cells/cm^2 on glass plates coated with Laminin, Poly-D-Lysine and Matrigel, respectively, and subjected to plane culture in media obtained by adding NT3, BDNF, CNTF, and FBS, respectively, to a DFNB medium. Medium exchange was carried out at a frequency of once every 3 days.
As a result of differentiation induction under the above conditions, the appearance of AVP neurons was confirmed on Day 150 of culture (FIG. 8). […] First, the medium after used for cell culture for 3 days was recovered, and the AVP hormone in the medium was measured by RIA method. […]

[3] = molecular target: T1, CRH-R1 (Homo sapiens, UniProt P34998); assay: ACTH suppression test using a CRH-R1 inhibitor; conditions: CRH-R1 inhibitor 10^−5 M added at the time of stimulation with CRH addition
T1 construct: it was confirmed, by analysis by the fluorescent antibody method, that ACTH positive cells were CRH-R1 positive; endogenous in cells; host or cells: pituitary tissue (ACTH-positive cells) differentiated from human iPS cells, 201B7 strain
T1 sequence (P34998 24-415): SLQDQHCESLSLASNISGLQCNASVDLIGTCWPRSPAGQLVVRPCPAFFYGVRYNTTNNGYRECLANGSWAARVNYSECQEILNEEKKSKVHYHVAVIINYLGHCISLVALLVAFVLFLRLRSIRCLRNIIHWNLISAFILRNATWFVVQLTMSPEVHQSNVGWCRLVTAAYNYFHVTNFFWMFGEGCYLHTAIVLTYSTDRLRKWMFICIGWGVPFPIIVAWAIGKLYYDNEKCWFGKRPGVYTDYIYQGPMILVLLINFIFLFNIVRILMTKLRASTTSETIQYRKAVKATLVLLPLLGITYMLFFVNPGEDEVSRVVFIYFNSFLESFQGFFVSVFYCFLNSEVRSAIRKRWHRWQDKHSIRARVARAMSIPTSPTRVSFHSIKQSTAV
Procedure: (§1) Human iPS cells (201B7 strain) were cultured under conditions (see column A.2) that were effective for simultaneous maturation of hypothalamus and pituitary. Pituitary tissue and hypothalamic tissue were observed on Day 60 of culture, and ACTH neurons were detected in pituitary tissue. In addition, the amount of ACTH secreted from pituitary tissue was increased by long-term culture (FIG. 19), and it was confirmed that the maturation of pituitary tissue had progressed with the lapse of culture time.
To further evaluate the function of pituitary tissue obtained by culture under the conditions in (1), an ACTH suppression test using a CRH-R1 inhibitor (Antalarmin, NBI2719) was performed (right in FIG. 23). A CRH-R1 inhibitor was added at a dose of 10^−5 M (test group) at the time of stimulation with CRH addition, and the amount of ACTH secreted was compared with that when no CRH-R1 inhibitor was added (control group). As a result of the test, the secretion of ACTH was suppressed by the CRH-R1 inhibitor (left and center in FIG. 23).

[4] = system: pituitary tissue (ACTH neurons) from human iPS cells (201B7 strain); assay: ACTH stimulation test using CRH; conditions: CRH added at 5 μg/ml; pituitary tissue from human iPS cells (201B7)
Procedure: as §1
In order to evaluate the function of pituitary tissue obtained by culture under the conditions in (1), an ACTH stimulation test using CRH (right in FIG. 21) was performed. The test method was in accordance with the previously reported method (Ozone C et al., Functional anterior pituitary generated in self-organizing culture of human embryonic stem cells. Nat Commun. 2016 Jan. 14; 7: 10351.) (CRH was added at 5 μg/ml). […] In addition, it was confirmed, by analysis by the fluorescent antibody method, that ACTH positive cells were CRH-R1 positive (center in FIG. 21).

[5] = SAG 0.5 μM with BMP signal activating substance 1.5 to 2.0 nM from Day 6

With `CN[C@H]1CC[C@H](N(Cc2cccc(-c3ccncc3)c2)C(=O)c2sc3ccccc3c2Cl)CC1` [SAG] the “differentiation efficiency of hypothalamic precursor cells” value [1, 5] was “exceeded 80%” and the “marker expression of cell aggregates” value [1, 5] was “co-positive for Rx and Pax6 and Chx10 negative”.

`[Cl-].[K+]` [potassium chloride] was tested, and the “response of AVP neurons (AVP hormone secretion) to stimulation” value [2] was “responded well”.

In the case of `CCCCN(CC)c1nc(C)nc2c1c(C)c(C)n2-c1c(C)cc(C)cc1C` [Antalarmin], the “amount of ACTH secreted vs control group without CRH-R1 inhibitor” value [3] is reported as “suppressed”.

In the case of “CRH: corticotropin releasing hormone, added at 5 μg/ml in the ACTH stimulation test (SEEPPISLDLTFHLLREVLEMARAEQLAQQAHSNRKLMEII; ends and bridges not checked; UniProt P06850 154-194, looked up)”, the “ACTH secretion in response to CRH” value [4] is reported as “ACTH was secreted in response to CRH”.

B1: BMP4: bone morphogenetic protein signal transduction pathway activating substance; a known cytokine (protein, UniProt P12644 293-408, looked up)
Bone morphogenetic protein 4: SPKHHSQRARKKNKNCRRHSLYVDFSDVGWNDWIVAPPGYQAFYCHGDCPFPLADHLNSTNHAIVQTLVNSVNSSIPKACCVPTELSAISMLYLDEYDKVVLKNYQEMVVEGCGCR
With B1 the marker expression ([1]; about 3.0 nM from Day 6, KSR-containing gfCDM) was “Rx as a hypothalamic marker and Pax6 as a dorsal marker became co-positive; also recorded: the retinal marker Chx10 also became positive”.
